Source: ChEMBL document CHEMBL1201862, “PubChem BioAssay data set” (2004)
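Briefly, cells in 96-well plates were exposed to five compound concentrations for 48 h, and endpoints were estimated by linear interpolation. At the GI50, growth is halved.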 Calls of active or inactive are those of the source. Cut-off read from the data, not from the text of the source: active = GI50 up to about 1.1 µM and inactive = higher.

Assays:
Test in all cases: DTP human tumour cell line panel, 48 h
MOLT-4 = test system: MOLT-4
SF-295 = test system: SF-295
HT-29 = test system: HT-29
OVCAR-5 = test system: OVCAR-5
TK-10 = test system: TK-10
NCI-H23 = test system: NCI-H23
A549 = test system: A549
SNB-75 = test system: SNB-75
IGROV-1 = test system: IGROV-1
NCI-H460 = test system: NCI-H460
UACC-257 = test system: UACC-257
SF-539 = test system: SF-539
NCI-H226 = test system: NCI-H226
A498 = test system: A498
HOP-62 = test system: HOP-62
DU-145 = test system: DU-145
OVCAR-8 = test system: OVCAR-8
MDA-MB-435 = test system: MDA-MB-435
T47D = test system: T47D

Measured: GI50

COC(=O)C(C(=O)C(=O)Nc1nc2ccc(OC)cc2s1)c1cnc2ccccc2n1 (configuration not stated)
inactive: MOLT-4 > 100 µM | SF-295 > 100 µM | HT-29 > 100 µM | OVCAR-5 > 100 µM | TK-10 > 100 µM | NCI-H23 > 100 µM | A549 > 100 µM | SNB-75 > 100 µM | IGROV-1 > 100 µM | NCI-H460 > 100 µM | UACC-257 > 100 µM | SF-539 > 100 µM | NCI-H226 > 100 µM | A498 > 100 µM | HOP-62 > 100 µM

CC1(C)COC(c2ccccc2-c2ccccc2)=N1
inactive: MOLT-4 > 100 µM | SF-295 53.7 µM | HT-29 83 µM | OVCAR-5 > 100 µM | NCI-H23 88.5 µM | DU-145 > 100 µM | OVCAR-8 > 100 µM | A549 59.2 µM | IGROV-1 67.8 µM | NCI-H460 > 100 µM | UACC-257 66.1 µM | MDA-MB-435 > 100 µM | SF-539 > 100 µM | NCI-H226 > 100 µM | T47D 83.2 µM | A498 > 100 µM | HOP-62 > 100 µM

CN1CCN(CCSC2Cc3cc(Cl)ccc3Sc3ccccc32)CC1 (configuration not stated)
inactive: MOLT-4 2.44 µM | SF-295 4.18 µM | HT-29 1.63 µM | OVCAR-5 5.37 µM | TK-10 5.13 µM | NCI-H23 7.89 µM | OVCAR-8 7.91 µM | A549 6.05 µM | SNB-75 5.82 µM | IGROV-1 10.3 µM | NCI-H460 4.95 µM | UACC-257 1.9 µM | SF-539 3.15 µM | NCI-H226 16.9 µM | A498 6.41 µM | HOP-62 12.7 µM

O=C(Nc1nc2ncn(CCNCCn3cnc4nc(NC(=O)c5ccccc5)[nH]c(=O)c43)c2c(=O)[nH]1)c1ccccc1
inactive: MOLT-4 > 100 µM | SF-295 > 100 µM | HT-29 > 100 µM | OVCAR-5 > 100 µM | TK-10 > 100 µM | NCI-H23 > 100 µM | OVCAR-8 > 100 µM | A549 > 100 µM | SNB-75 > 100 µM | IGROV-1 > 100 µM | NCI-H460 > 100 µM | UACC-257 > 100 µM | SF-539 > 100 µM | NCI-H226 > 100 µM | A498 > 100 µM | HOP-62 > 100 µM

CCOC(=O)C1C(=O)CC(C)(O)C(C(=O)OCC)C1c1ccc(O)c(OC)c1 (configuration not stated)
inactive: MOLT-4 > 100 µM | SF-295 > 100 µM | HT-29 > 100 µM | OVCAR-5 > 100 µM | TK-10 > 100 µM | NCI-H23 > 100 µM | DU-145 > 100 µM | OVCAR-8 > 100 µM | A549 > 100 µM | SNB-75 > 100 µM | IGROV-1 > 100 µM | NCI-H460 > 100 µM | UACC-257 > 100 µM | MDA-MB-435 > 100 µM | NCI-H226 > 100 µM | T47D > 100 µM | A498 > 100 µM | HOP-62 > 100 µM

Cc1c(CN)c(C)c(CN)c(C)c1CN
inactive: MOLT-4 > 100 µM | SF-295 > 100 µM | HT-29 > 100 µM | OVCAR-5 > 100 µM | TK-10 > 100 µM | NCI-H23 27 µM | DU-145 > 100 µM | OVCAR-8 > 100 µM | A549 > 100 µM | SNB-75 > 100 µM | IGROV-1 > 100 µM | NCI-H460 > 100 µM | UACC-257 > 100 µM | MDA-MB-435 > 100 µM | SF-539 > 100 µM | NCI-H226 > 100 µM | HOP-62 81.5 µM

COc1ccc(/C=N/n2c(Cc3ccc(Cl)cc3)n[nH]c2=O)cc1
inactive: MOLT-4 > 100 µM | SF-295 19.8 µM | HT-29 13.6 µM | OVCAR-5 29.5 µM | NCI-H23 22 µM | DU-145 30.3 µM | OVCAR-8 16.7 µM | A549 43.6 µM | SNB-75 16.6 µM | IGROV-1 16 µM | NCI-H460 > 100 µM | UACC-257 > 100 µM | MDA-MB-435 > 100 µM | SF-539 22.1 µM | NCI-H226 36.2 µM | T47D 54.1 µM | A498 39.3 µM | HOP-62 15.2 µM

O=C(c1cccc2cc(O)ccc12)c1cn(CCN2CCOCC2)c2ccccc12
inactive: MOLT-4 34.7 µM | HT-29 20.7 µM | OVCAR-5 29.5 µM | TK-10 21.6 µM | NCI-H23 33.3 µM | DU-145 30.1 µM | OVCAR-8 31.6 µM | IGROV-1 20.3 µM | UACC-257 21.7 µM | SF-539 > 100 µM | NCI-H226 39.9 µM | T47D 38.3 µM | HOP-62 22 µM

O=C(O)c1ccc(/N=N/c2cc(S(=O)(=O)O)c3cccnc3c2O)cc1
inactive: MOLT-4 > 100 µM | SF-295 > 100 µM | HT-29 > 100 µM | OVCAR-5 > 100 µM | TK-10 > 100 µM | NCI-H23 > 100 µM | OVCAR-8 > 100 µM | A549 > 100 µM | SNB-75 > 100 µM | IGROV-1 > 100 µM | NCI-H460 > 100 µM | UACC-257 > 100 µM | SF-539 > 100 µM | NCI-H226 > 100 µM | A498 > 100 µM | HOP-62 > 100 µM

CN(C)c1snc2c1c(=O)n(C)c(=O)n2C
inactive: MOLT-4 > 100 µM | SF-295 > 100 µM | HT-29 > 100 µM | OVCAR-5 > 100 µM | TK-10 > 100 µM | NCI-H23 > 100 µM | OVCAR-8 > 100 µM | A549 > 100 µM | SNB-75 35.7 µM | IGROV-1 > 100 µM | NCI-H460 > 100 µM | UACC-257 > 100 µM | SF-539 > 100 µM | NCI-H226 65.2 µM | A498 > 100 µM | HOP-62 > 100 µM

NC(=O)c1cc(C2OC(CO)C(O)C2O)nn1-c1ccc([N+](=O)[O-])cc1 (configuration not stated)
inactive: MOLT-4 > 100 µM | SF-295 > 100 µM | HT-29 > 100 µM | OVCAR-5 > 100 µM | TK-10 > 100 µM | NCI-H23 > 100 µM | OVCAR-8 > 100 µM | A549 > 100 µM | SNB-75 > 100 µM | IGROV-1 > 100 µM | NCI-H460 > 100 µM | UACC-257 > 100 µM | SF-539 > 100 µM | NCI-H226 > 100 µM | A498 > 100 µM | HOP-62 > 100 µM

CCN(C(=O)N[C@H](C(=O)N[C@@H](CSC)C(=O)N[C@@H](C)C(=O)OC)C(C)C)c1ccccc1
inactive: MOLT-4 8.3 µM | SF-295 17.9 µM | HT-29 13.2 µM | OVCAR-5 15.5 µM | TK-10 13.6 µM | NCI-H23 17.8 µM | DU-145 17.4 µM | OVCAR-8 17.2 µM | A549 23.6 µM | SNB-75 12.4 µM | IGROV-1 10.4 µM | NCI-H460 15.8 µM | UACC-257 12.4 µM | MDA-MB-435 14.7 µM | SF-539 19.6 µM | NCI-H226 16.3 µM | T47D 26.4 µM | HOP-62 19.8 µM

N=CCCN(CCC=N)c1ccc(/C=C2\CN(NC(=O)c3ccc(Cl)cc3)C(c3ccccc3)=N2)cc1
inactive: MOLT-4 > 100 µM | SF-295 > 100 µM | HT-29 > 100 µM | OVCAR-5 > 100 µM | TK-10 > 100 µM | NCI-H23 > 100 µM | OVCAR-8 > 100 µM | A549 > 100 µM | SNB-75 > 100 µM | IGROV-1 > 100 µM | NCI-H460 > 100 µM | UACC-257 > 100 µM | SF-539 > 100 µM | NCI-H226 > 100 µM | A498 > 100 µM | HOP-62 > 100 µM

CC(=O)C1=CCC2c3[nH]c4ccccc4c3CCN2C1 (configuration not stated)
inactive: MOLT-4 42.1 µM | SF-295 98.6 µM | HT-29 31.3 µM | OVCAR-5 > 100 µM | TK-10 > 100 µM | NCI-H23 46.7 µM | OVCAR-8 47.6 µM | A549 > 100 µM | SNB-75 15.1 µM | IGROV-1 61.1 µM | NCI-H460 45 µM | UACC-257 > 100 µM | SF-539 26.6 µM | NCI-H226 > 100 µM | A498 > 100 µM | HOP-62 > 100 µM

CCOC(=O)C1C(c2ccccc2)=C(c2ccccc2)C(c2ccccc2)=C1c1ccccc1
inactive: MOLT-4 50 µM | SF-295 23.6 µM | HT-29 > 100 µM | OVCAR-5 > 100 µM | TK-10 23.4 µM | NCI-H23 34.2 µM | OVCAR-8 25.7 µM | A549 33.7 µM | SNB-75 13.2 µM | IGROV-1 29.2 µM | NCI-H460 51.8 µM | UACC-257 > 94.6 µM | SF-539 29.7 µM | NCI-H226 > 39.2 µM | A498 20 µM | HOP-62 12.6 µM

O=C(N[C@H](CO)[C@H](O)c1ccc([N+](=O)[O-])cc1)C(Cl)Cl [CHLORAMPHENICOL]
inactive: MOLT-4 > 100 µM | SF-295 > 100 µM | HT-29 > 100 µM | OVCAR-5 > 100 µM | TK-10 > 100 µM | NCI-H23 > 100 µM | DU-145 > 100 µM | OVCAR-8 > 100 µM | A549 > 100 µM | SNB-75 98.2 µM | IGROV-1 > 100 µM | NCI-H460 > 100 µM | UACC-257 > 100 µM | MDA-MB-435 > 100 µM | SF-539 > 100 µM | NCI-H226 > 100 µM | A498 > 100 µM | HOP-62 > 100 µM
